# Starred links: 1 amine or outer side, 2 acyl side, 3 side chain; linkers in the order of their positions; H or OH if unused. Positions of bridges follow the written chain, without caps; N, C: chain ends. Non-standard residues stand in square brackets, D forms with d. Residues, ends and D or L forms follow the SMILES beside them. *: point of attachment. hTyr(3S-OH,4S-OH,3'-OSO3H) = N[C@H](C(=O)O)[C@H](O)[C@@H](O)c1ccc(O)c(OS(=O)(=O)O)c1; Orn(4R-OH,5R-OH) = O=C([C@H](C[C@@H](O)[C@@H](O)N[*:3])N[*:1])[*:2]; Pro(3S-OH,4S-Me) = C[C@H]1CN[C@H](C(=O)O)[C@H]1O; X1 = CCCCCOc1ccc(-c2cc(-c3ccc(C(=O)*)cc3)no2)cc1; Gln(3R-OH) = NC(=O)C[C@@H](O)[C@H](N)C(=O)O; Hyp = O=C(O)[C@@H]1C[C@@H](O)CN1
# Experiments:
# CHIKV BRA/RJ/18 [1] = experiment: Antiviral evaluation against CHIKV BRA/RJ/18 replication in Vero cells (plaque assay); format: cell-based, Chikungunya virus; conditions: for EC50 / inhibition at 50 µM: Chikungunya virus, Vero; for EC50: 24 h, read-out: CHIKV BRA/RJ/18 EC50; for CHIKV BRA/RJ/18 EC50: Vero cells, MOI 1, 24 h; for inhibition at 50 µM: read-out: CHIKV BRA/RJ/18 inhibition (%); for CHIKV BRA/RJ/18 SI (selectivity index): ratio between CC50 and EC50 values
# [2] = Cytotoxicity by MTT assay in Vero cells; conditions: African green monkey
# CHIKV 181-25 strain = experiment: Antiviral screening against CHIKV 181-25 replication in Vero cells (plaque assay); format: cell-based, Chikungunya virus; conditions: inhibition rate of CHIKV replication at 50 μM, % relative to control, 24 hpi; for inhibition at 50 µM: Chikungunya virus; for CHIKV 181-25 inhibition (%): 50 µM
# Protocol: DMSO (0.5%) was used as vehicle control, while CQ (50 μM) was used as a positive control due to its in vitro antiviral activity against CHIKV.[57]
# Finally, the overlay medium was removed, and cells were fixed and stained with 10% formaldehyde and 0.2% crystal violet. Plaques were counted, and virus titers were determined as PFU/mL. Inhibition rates were determined by comparing the number of PFU of infected and treated cells and infected and untreated cells (100% infectivity).
# CHIKV BRA/RJ/18 [3] = experiment: Time-of-drug addition assay; format: cell-based; conditions: Chikungunya virus
# CHIKV BRA/RJ/18 [4] = experiment: Virucidal assay; format: cell-based, Chikungunya virus; conditions: 50 μM, 2 × 10^5 PFU treated 2 h at 37 °C
# human herpesvirus 8 = conditions: read-out: EC50 against human herpesvirus 8; cited from earlier work
# Zika virus = conditions: read-out: EC50 against Zika virus; cited from earlier work
# rats = conditions: doses up to 10 g/kg; cited from earlier work
# mice = conditions: doses up to 10 g/kg; cited from earlier work
# [5] = single oral dose of 400 mg; cited from earlier work
# CHIKV BRA/RJ/18 [6] = experiment: Entry assay; conditions: Chikungunya virus, read-out: inhibition rate in virus entry assay
# CHIKV BRA/RJ/18 [7] = experiment: Attachment assay; conditions: Chikungunya virus, read-out: inhibition rate in attachment assay
# CHIKV BRA/RJ/18 [8] = experiment: Virus release assay; conditions: 50 μM, 6 hpi
# CHIKV [9] = conditions: read-out: EC50 against CHIKV; cited from earlier work
# CHIKV [10] = conditions: cited from earlier work
structure (smiles),measurement,setting,value
"CCCSc1ccc2nc(NC(=O)OC)[nH]c2c1 [ABZ, albendazole]",EC50,CHIKV BRA/RJ/18 [1],> 50 µM
same,CHIKV BRA/RJ/18 EC50,CHIKV BRA/RJ/18 [1],none exhibited anti-CHIKV activity
same,CC50 at 72 h,[2],> 500 µM
"CCCCCOC(=O)Nc1nc(=O)n([C@@H]2O[C@H](C)[C@@H](O)[C@H]2O)cc1F [CPB, capecitabine]",inhibition at 50 µM,CHIKV 181-25 strain,0%
same,CHIKV 181-25 inhibition (%),CHIKV 181-25 strain,did not present antiviral activity
same,CHIKV 181-25 inhibition (%),CHIKV 181-25 strain; listed as CPD,did not inhibit CHIKV replication
"CCN(CC)CCCC(C)Nc1ccnc2cc(Cl)ccc12 (stereo not drawn) [CQ, chloroquine]",inhibition at 50 µM,CHIKV 181-25 strain,98.2 ± 0.2%
same,EC50,CHIKV BRA/RJ/18 [1],47.5 ± 10.2 µM
same,inhibition at 50 µM,CHIKV BRA/RJ/18 [1],48.5 ± 11.7%
same,CHIKV BRA/RJ/18 SI (selectivity index),CHIKV BRA/RJ/18 [1],9.9
same,CC50 at 72 h,[2],469 ± 84.4 µM
"COC(=O)Nc1nc2ccc(Sc3ccccc3)cc2[nH]1 [FBZ, fenbendazole]",EC50,CHIKV BRA/RJ/18 [1],> 50 µM
same,CHIKV BRA/RJ/18 EC50,CHIKV BRA/RJ/18 [1],none exhibited anti-CHIKV activity
same,CC50 at 72 h,[2],> 500 µM
"COC(=O)Nc1nc2ccc(C(=O)c3ccccc3)cc2[nH]1 [MBZ, mebendazole]",EC50,CHIKV BRA/RJ/18 [1],> 50 µM
same,CHIKV BRA/RJ/18 EC50,CHIKV BRA/RJ/18 [1],none exhibited anti-CHIKV activity
same,CC50 at 72 h,[2],> 500 µM
"CCCOc1ccc2nc(NC(=O)OC)[nH]c2c1 [OBZ, oxibendazole]",inhibition at 50 µM,CHIKV 181-25 strain,66.4 ± 2.5%
same,EC50,CHIKV BRA/RJ/18 [1],11.4 ± 3.2 µM
same,inhibition at 50 µM,CHIKV BRA/RJ/18 [1],61.8 ± 2.7%
same,CHIKV BRA/RJ/18 SI (selectivity index),CHIKV BRA/RJ/18 [1],>44.0
same,inhibition at 50 µM,"CHIKV BRA/RJ/18 [3]; read-out: inhibition rate in time-of-addition assay, 50 μM, added after 4 hpi until 10 hpi",~40%
same,inhibition at 50 µM,"CHIKV BRA/RJ/18 [3]; read-out: inhibition rate in time-of-addition assay, 50 μM, added until 4 hpi",~55%
same,virucidal effect,CHIKV BRA/RJ/18 [4],no virucidal effects were observed
same,EC50,human herpesvirus 8,1.5 µM
same,EC50,Zika virus,0.7 µM
same,lethality (LD50 not determinable),rats,no deaths were reported
same,lethality (LD50 not determinable),mice,no deaths were reported
same,side effects in clinical trials,[5],low frequency of side effects
same,inhibition at 50 µM,CHIKV BRA/RJ/18 [6],33.8%
same,inhibition at 50 µM,CHIKV BRA/RJ/18 [7],13.1%
same,intracellular/extracellular ratio of virus titers,CHIKV BRA/RJ/18 [8],3.78
same,CC50 at 72 h,[2],> 500 µM
"CCCCCOc1ccc(-c2cc(-c3ccc(C(=O)N[C@H]4C[C@@H](O)[C@@H](O)NC(=O)[C@@H]5[C@@H](O)[C@@H](C)CN5C(=O)[C@H]([C@H](O)CC(N)=O)NC(=O)[C@H]([C@H](O)[C@@H](O)c5ccc(O)c(OS(=O)(=O)O)c5)NC(=O)[C@@H]5C[C@@H](O)CN5C(=O)[C@H]([C@@H](C)O)NC4=O)cc3)no2)cc1 [micafungin] (X1-[Orn(4R-OH,5R-OH)]T[Hyp][hTyr(3S-OH,4S-OH,3'-OSO3H)][Gln(3R-OH)][Pro(3S-OH,4S-Me)]; lactam 1-C)",EC50,CHIKV [9],20.6 µM
CC(=O)Oc1ccccc1C(=O)Nc1ncc([N+](=O)[O-])s1 [nitazoxanide],EC50,CHIKV [9],2.96 µM
CCCCCCCCCCC[C@@H](C[C@@H]1OC(=O)[C@H]1CCCCCC)OC(=O)[C@H](CC(C)C)NC=O [orlistat],EC50,CHIKV [9],0.82 µM
CC(C)OC(=O)[C@H](C)N[P@](=O)(OC[C@H]1O[C@@H](n2ccc(=O)[nH]c2=O)[C@](C)(F)[C@@H]1O)Oc1ccccc1 [sofosbuvir],EC50,CHIKV [9],2.7 µM
same,effect on CHIKV infection in mice,CHIKV [10],ameliorate CHIKV infection in mice
Cc1ccc(C(=O)Nc2ccc(S(=O)(=O)O)c3cc(S(=O)(=O)O)cc(S(=O)(=O)O)c23)cc1NC(=O)c1cccc(NC(=O)Nc2cccc(C(=O)Nc3cc(C(=O)Nc4ccc(S(=O)(=O)O)c5cc(S(=O)(=O)O)cc(S(=O)(=O)O)c45)ccc3C)c2)c1 [suramin],EC50,CHIKV [9],21.5 µM
same,effect on CHIKV infection in mice,CHIKV [10],ameliorate CHIKV infection in mice
CCCc1nc2c(C)cc(-c3nc4ccccc4n3C)cc2n1Cc1ccc(-c2ccccc2C(=O)O)cc1 [telmisartan],EC50,CHIKV [9],15.3 µM
same,effect on CHIKV infection in mice,CHIKV [10],ameliorate CHIKV infection in mice
